According to patent US20070172529A1, “Herbal formulation for the treatment of piles” (COUNCIL OF SCIENTIFIC AND INDUSTRIAL RESEARCH, priority 2004, published 2007):
Marks after values point to notes of the source that are not given here.

Columns and labels:
force-induced pain = experiment: Analgesy-meter force-induced pain in rats; format: in vivo, rat; details: mean ± SEM, six rats
Protocol: Analgesy-meter induced pain: The analgesic effect of the powder was tested in rat of either sex, using an Ugo Basile Analgesy meter (No. 32725) (21025 Comerio-[…], Italy). This method involves the application of force to the paw of the rat using the Analgesy-meter, which exerts a force that increases at a constant rate. The rat was gently placed between the plinth and plunger. The instrument was switched on and a constant motor rate was used to drive the plunger on to the paw of the rat. When the rat struggles, the instrument is switched off and the force at which the animal felt pain was read on a scale calibrated in grams ×10 by a pointers. The pre-treatment and the after treatment weight causing pain was determined for each rat. […]

interleukin-1 production = details: Chem. Pharm. Bull. 1992, 40,2041; cited from earlier work
Bacillus Substilis = details: against Bacillus Substilis; cited from earlier work
[1] = test system: λ carrageenin induced edema; experiment: λ carrageenin induced paw edema in rats; format: in vivo, rat
Protocol: Carrageenin induced paw edema: Rats were injected with 0.1 ml of 1% λ carrageenin (St.-Louis, Mo.) into the subplantar side of the left hind paw. The paw was marked with ink at the level of the lateral malleolus and dipped in perspex cell up to this mark. The paw volume was measured with an Ugo Basile Plethysmometer (No: 61402) (7140 Comerio-varese, Italy) immediately and 3 h after injecting the λ carrageenin suspension. […] Significant reductions in the paw volume compared to vehicle treated control animals were considered as anti-inflammatory response. Percentage inhibition of oedema was calculated as follows: % Inhibition=(1−VT/VC)×100
VT=Paw volume in drug treated rats, VC=Paw volume in control group of rats.

CC(C)Cc1ccc(C(C)C(=O)O)cc1 (stereo not drawn) [Ibuprofen]
Weight causing pain (g) After Administration (force-induced pain; 100 mg/kg): 161.1 ± 7.9^b g
Weight causing pain (g) Before Administration (force-induced pain; pre-treatment value of 100 mg/kg group): 84.7 ± 5.7 g

Pongapipnone A
Inhibition of interleukin-1 production (interleukin-1 production): inhibited interleukin-1 production

C[C@@H]1O[C@@H](Oc2ccc(CN=C=S)cc2)[C@H](O)[C@H](O)[C@H]1O [4-(α-L Rhamnosyloxy benzylisothiocynate]
Antibacterial activity (Bacillus Substilis): exhibited antibacterial activity

COc1ccc2c(c1)c(CC(=O)O)c(C)n2C(=O)c1ccc(Cl)cc1 [Indomethacin]
Paw volume (ml) at 3h λ carrageenin ([1]; 100 mg/kg, mean ± SEM, six rats): 0.15 ± 0.02 mL
inhibition at 100 mg/kg ([1]; Rattus norvegicus, 3 h after λ carrageenin, vs control): 84.7%
